Results on 17 molecules are retold here after patent US8435978B2, “Substituted sulfonamide compounds” (Gruenenthal GmbH, priority 2006, dated 2013).

One experiment has as its target T1, human B1R receptor (Homo sapiens, UniProt P46663).
T1 construct: host or cells: CHO K1 cells (Chinese hamster ovary), stably transfected
T1 sequence (P46663 1-353): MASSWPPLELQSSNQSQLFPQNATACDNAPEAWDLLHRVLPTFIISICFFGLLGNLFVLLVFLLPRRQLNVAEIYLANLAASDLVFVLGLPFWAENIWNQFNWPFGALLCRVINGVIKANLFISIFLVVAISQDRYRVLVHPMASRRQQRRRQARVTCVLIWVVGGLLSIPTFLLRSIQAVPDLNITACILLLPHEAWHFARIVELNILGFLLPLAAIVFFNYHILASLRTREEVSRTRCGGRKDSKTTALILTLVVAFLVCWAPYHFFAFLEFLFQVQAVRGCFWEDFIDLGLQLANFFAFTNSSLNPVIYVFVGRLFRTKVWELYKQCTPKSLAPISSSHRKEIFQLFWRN
As to the kind of experiment: Functional study on the bradykinin receptor 1 (B1R), FLIPR Ca2+ assay, hB1R cells. Format: cell-based. Conditions: agonist Lys-Des-Arg9-bradykinin 0.5 nM, % inhibition compared with the maximum achievable inhibition; for inhibition at 10 µM: CHO-K1, test substance 10 μM, read-out: B1R Antagonism, human [10 μM] % Inhibition; for B1R Antagonism, human [10 μM] % Inhibition: test substance 10 μM, hB1R CHO K1 cells. The method, then: (§1) The agonistic or antagonistic action of substances can be quantified on the bradykinin receptor 1 (B1R) of the species human and rat with ectopically expressing cell lines (CHO K1 cells) and with the aid of a Ca^2+-sensitive dye (Fluo-4) using a fluorescent imaging plate reader (FLIPR). The indication in % activation is based on the Ca^2+ signal after addition of Lys-Des-Arg^9-bradykinin (0.5 nM) or Des-Arg^9-bradykinin (100 nM). Antagonists result in a suppression of the Ca^2+ influx following administration of the agonist. The % inhibition in comparison with the maximum achievable inhibition is indicated.
(§2) The agonistic or antagonistic action of substances can be determined on the bradykinin receptor 1 (B1R) of the species human and rat using the following assay. According to this assay, the Ca^2+ influx through the channel is quantified with the aid of a Ca^2+-sensitive dye (type Fluo-4, Molecular Probes Europe BV, Leiden, Netherlands) using a Fluorescent Imaging Plate Reader (FLIPR, Molecular Devices, Sunnyvale, USA).
(§3) Chinese hamster ovary cells (CHO K1 cells) which have been stably transfected with the human B1R gene (hB1R cells, Euroscreen s.a., Gosselies, Belgium) or with the B1R gene of the rat (rB1R cells, Axxam, Milan, Italy) are used. For functional studies, the cells are plated out on black 96-well plates having a clear base (BD Biosciences, Heidelberg, Germany) in a density of 20,000-25,000 cells/well. The cells are incubated overnight at 37° C. and with 5% CO2 in culture medium (hB1R cells: Nutrient Mixture Ham's F12, Gibco Invitrogen GmbH, Karlsruhe, Germany; rB1R cells: D-MEM/F12, Gibco Invitrogen GmbH, Karlsruhe, Germany), with 10 vol. % FBS (fetal bovine serum, Gibco Invitrogen GmbH, Karlsruhe, Germany). On the following day, the cells are loaded for 60 minutes at 37° C. with 2.13 μM Fluo-4 (Molecular Probes Europe BV, Leiden, Netherlands) in HBSS buffer (Hank's buffered saline solution, Gibco Invitrogen GmbH, Karlsruhe, Germany) […] (Sigma-Aldrich, Taufkirchen, Germany) and 10 mM HEPES (Sigma-Aldrich, Taufkirchen, Germany). The plates are then washed twice with HBSS buffer, and HBSS buffer additionally containing 0.1% BSA (bovine serum albumin; Sigma-Aldrich, Taufkirchen, Germany), 5.6 mM glucose and 0.05% gelatin (Merck KGaA, Darmstadt, Germany) is added to the plates. After incubation for a further 20 minutes at room temperature, the plates are inserted into the FLIPR for Ca^2+ measurement. The Ca^2+-dependent fluorescence is measured before and after the addition of substances (λex=488 nm, λem=540 nm). Quantification is carried out by measuring the highest fluorescence intensity (FC, fluorescence counts) over time.
(§4) The FLIPR protocol consists of 2 substance additions. Test substances (10 μM) are first pipetted onto the cells and the Ca^2+ influx is compared with the control (hB1R: Lys-Des-Arg^9-bradykinin 0.5 nM; rB1R: Des-Arg^9-bradykinin 100 nM). This gives the activation in %, based on the Ca^2+ signal after addition of Lys-Des-Arg^9-bradykinin (0.5 nM) or Des-Arg^9-bradykinin (100 nM).
(§5) After 10 minutes' incubation, 0.5 nM Lys-Des-Arg^9-bradykinin (hB1R) or 100 nM Des-Arg^9-bradykinin (rB1R) are applied, and the influx of Ca^2+ is likewise determined. Antagonists lead to suppression of the Ca^2+ influx. The % inhibition compared with the maximum achievable inhibition is calculated.

Another experiment deals with T2, B1R receptor of the rat (Rattus norvegicus, UniProt P97583).
T2 construct: host or cells: CHO K1 cells (Chinese hamster ovary), stably transfected
T2 sequence (P97583 1-337): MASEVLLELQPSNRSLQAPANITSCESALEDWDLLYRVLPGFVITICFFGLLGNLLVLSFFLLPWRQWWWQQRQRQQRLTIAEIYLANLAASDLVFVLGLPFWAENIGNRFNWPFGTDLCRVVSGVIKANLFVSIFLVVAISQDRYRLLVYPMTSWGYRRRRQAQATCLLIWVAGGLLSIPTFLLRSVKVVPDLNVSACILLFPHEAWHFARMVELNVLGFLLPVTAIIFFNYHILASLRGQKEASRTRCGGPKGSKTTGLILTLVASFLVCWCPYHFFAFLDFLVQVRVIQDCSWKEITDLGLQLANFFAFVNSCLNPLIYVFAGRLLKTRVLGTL
As to the kind of experiment: Functional study on the bradykinin receptor 1 (B1R), FLIPR Ca2+ assay, rB1R cells. Format: cell-based. Conditions: agonist Des-Arg9-bradykinin 100 nM, % inhibition compared with the maximum achievable inhibition; for inhibition at 10 µM: CHO-K1, test substance 10 μM, read-out: B1R Antagonism, rat [10 μM] % Inhibition. The method, then:
as §1, §2, §3, §4, §5

The structures appear in SMILES notation.

Turning to `COc1cc(C)c(S(=O)(=O)N2CCCCC2COCC(=O)NCc2ccc(CN(C)C)cc2)c(C)c1` (stereo not shown) [Example 11, N-(4-dimethylaminomethyl-benzyl)-2-[1-(4-methoxy-2,6-dimethyl-phenylsulfonyl)-piperidin-2-ylmethoxy]-acetamide], the inhibition – broadly, the relative decrease from the control value, in per cent – at 10 µM at human B1R receptor amounted to 99.6%; at B1R receptor of the rat, 106%.

As for `Cc1cc(C)c(S(=O)(=O)N2CCCCC2COCC(=O)NCC2CCCN(Cc3ccccc3)C2)c(C)c1` (stereo not shown) [Example 12, N-(1-benzyl-piperidin-3-ylmethyl)-2-[1-(2,4,6-trimethyl-phenylsulfonyl)-piperidin-2-ylmethoxy]-acetamide], the figures for the inhibition at 10 µM on human B1R receptor and at B1R receptor of the rat were 99.1% and 74.9%, respectively.

Take `CN1CCN(c2ccc(CNC(=O)COCC3CCCCN3S(=O)(=O)c3c(Cl)cc(Cl)cc3Cl)cc2)CC1` (stereo not shown) [Example 13, N-[4-(4-methyl-piperazin-1-yl)-benzyl]-2-[1-(2,4,6-trichloro-phenylsulfonyl)-piperidin-2-ylmethoxy]-acetamide]: the inhibition at 10 µM at human B1R receptor is 97.7%; at B1R receptor of the rat it was 113%.

Turning to `COc1cc(C)c(S(=O)(=O)N2CCCCC2COCC(=O)NCc2ccc(N3CCCCC3)cc2)c(C)c1` (stereo not shown) [Example 14, 2-[1-(4-methoxy-2,6-dimethyl-phenylsulfonyl)-piperidin-2-ylmethoxy]-N-(4-piperidin-1-yl-benzyl)-acetamide], the inhibition at 10 µM on human B1R receptor came to 97%; at B1R receptor of the rat, 104%.

In the case of `CN1CCN(Cc2ccc(CNC(=O)COCC3CCCCN3S(=O)(=O)c3c(Cl)cc(Cl)cc3Cl)cc2)CC1` (stereo not shown) [Example 15, N-[4-(4-methyl-piperazin-1-ylmethyl)-benzyl]-2-[1-(2,4,6-trichloro-phenylsulfonyl)-piperidin-2-ylmethoxy]-acetamide], the figures for the inhibition at 10 µM at human B1R receptor and at B1R receptor of the rat were 96% and 92.5%, respectively.

`O=C(COCC1Cc2ccccc2N1S(=O)(=O)c1ccc(Cl)c(Cl)c1)NCC1CCCN(Cc2ccccc2)C1` (stereo not shown) [Example 16, N-(1-benzyl-piperidin-3-ylmethyl)-2-[1-(3,4-dichloro-phenylsulfonyl)-2,3-dihydro-1H-indol-2-ylmethoxy]-acetamide]: the inhibition at 10 µM amounted to 95.9% at human B1R receptor and 25.5% on B1R receptor of the rat.

Regarding `O=C(COCC1Cc2ccccc2CN1S(=O)(=O)c1ccc(Cl)cc1Cl)N1CCC(N2CCCC2)CC1` (stereo not shown) [Example 17], the “B1R Antagonism, human [10 μM] % Inhibition” value on human B1R receptor was determined as 95.53%. Moreover, the “B1R Antagonism, rat [10 μM] % Inhibition” value at B1R receptor of the rat (test substance 10 μM, rB1R CHO K1 cells) was 96.94%.

`COc1cc(C)c(S(=O)(=O)N2CCCC2COCC(=O)NCc2ccc(N3CCN(C)CC3)cc2)c(C)c1` (stereo not shown) [Example 18, 2-[1-(4-methoxy-2,6-dimethyl-phenylsulfonyl)-pyrrolidin-2-ylmethoxy]-N-[4-(4-methyl-piperazin-1-yl)-benzyl]-acetamide]: the inhibition at 10 µM on human B1R receptor amounted to 95.3%; on B1R receptor of the rat, 110%.

For the molecule `Cc1cc(C)c(S(=O)(=O)N2CCCCC2COCC(=O)N2CCC(N3CCCC3)CC2)c(C)c1` (stereo not shown) [Example 19, 2-((1-(mesitylsulfonyl)piperidin-2-yl)methoxy)-1-(4-(pyrrolidin-1-yl)piperidin-1-yl)-ethanone], the inhibition at 10 µM was found to be 95% on human B1R receptor and 98.9% on B1R receptor of the rat.

`O=C(COCC1CCCCN1S(=O)(=O)c1ccc(Cl)c(Cl)c1)N1CCC(CCN2CCCCC2)CC1` (stereo not shown) [Example 20, 2-((1-(3,4-dichlorophenylsulfonyl)piperidin-2-yl)methoxy)-1-(4-(2-(piperidin-1-yl)-ethyl)piperidin-1-yl)ethanone]: the inhibition at 10 µM on human B1R receptor is 94.9%; on B1R receptor of the rat, 86.4%.

As for `COc1cc(C)c(S(=O)(=O)N2CCCCC2COCC(=O)NCc2ccc(N3CCOCC3)cc2)c(C)c1` (stereo not shown) [Example 21, 2-[1-(4-methoxy-2,6-dimethyl-phenylsulfonyl)-piperidin-2-ylmethoxy]-N-(4-morpholin-4-yl-benzyl)-acetamide], the “B1R Antagonism, human [10 μM] % Inhibition” value on human B1R receptor was 93.47%. Besides, the inhibition at 10 µM on B1R receptor of the rat worked out at 108%.

`CN1CCC(N2CCN(C(=O)COCC3CCCCN3S(=O)(=O)c3cccc(C(F)(F)F)c3)CC2)CC1` (stereo not shown) [Example 22, 1-[4-(1-methyl-piperidin-4-yl)-piperazin-1-yl]-2-[1-(3-trifluoromethyl-phenylsulfonyl)-piperidin-2-ylmethoxy]-ethanone]: the values for the inhibition at 10 µM on human B1R receptor and at B1R receptor of the rat were 92.6% and 21.4%, respectively.

For `O=C(COCC1CCCCN1S(=O)(=O)c1cccc2ccccc12)N1CCC(N2CCCC2)CC1` (stereo not shown) [Example 23, 2-((1-(naphthalen-1-ylsulfonyl)piperidin-2-yl)methoxy)-1-(4-(pyrrolidin-1-yl)piperidin-1-yl)ethanone], the inhibition at 10 µM on human B1R receptor amounted to 92.3%; on B1R receptor of the rat, 85.3%.

In the case of `COc1cc(C)c(S(=O)(=O)N2CCCCC2COCC(=O)NCc2ccc(CN3CCOCC3)cc2)c(C)c1` (stereo not shown) [Example 24, 2-[1-(4-methoxy-2,6-dimethyl-phenylsulfonyl)-piperidin-2-ylmethoxy]-N-(4-morpholin-4-ylmethyl-benzyl)-acetamide], the inhibition at 10 µM came to 92.2% at human B1R receptor and 107% on B1R receptor of the rat.

Regarding `Cc1cc(C)c(S(=O)(=O)N2Cc3ccccc3CC2COCC(=O)N2CCN(CCCN(C)C)CC2)c(C)c1` (stereo not shown) [Example 25, 1-[4-(3-dimethylamino-propyl)-piperazin-1-yl]-2-[2-(2,4,6-trimethyl-phenylsulfonyl)-1,2,3,4-tetrahydro-isoquinolin-3-ylmethoxy]-ethanone], the inhibition at 10 µM on human B1R receptor amounted to 91%; at B1R receptor of the rat it was 80.6%.

For `O=C(COCC1CCCCN1S(=O)(=O)c1ccc(Cl)c(Cl)c1)N1CCC(N2CCCC2)CC1` (stereo not shown) [Example 26, 2-[1-(3,4-dichloro-phenylsulfonyl)-piperidin-2-ylmethoxy]-1-(4-pyrrolidin-1-yl-piperidin-1-yl)-ethanone], the inhibition at 10 µM at human B1R receptor was determined as 86.8%; at B1R receptor of the rat it was 4.56%.

With `Cc1cc(C)c(S(=O)(=O)N2CCCCC2COCC(=O)N2CCCC2CN2CCCCC2)c(C)c1` (stereo not shown) [Example 27, 1-(2-piperidin-1-ylmethyl-pyrrolidin-1-yl)-2-[1-(2,4,6-trimethyl-phenylsulfonyl)-piperidin-2-ylmethoxy]-ethanone], the figures for the inhibition at 10 µM at human B1R receptor and on B1R receptor of the rat were 85.4% and 97.7%, respectively.
